The source of these data is patent US20240122180A1, “FUNGICIDAL HALOMETHYL KETONES AND HYDRATES AND THEIR MIXTURES” (FMC Corporation, priority 2020, published 2024).

The pest or weed control is how far the test organism was held down. The term melting point denotes the temperature of the solid-liquid transition.

The test system of data set [1] is Phakopsora pachyrhizi (the causal agent of Asian soybean rust). Briefly: Test A: preventive spray on soybean seedlings, visual disease rating (100 = 100% control; * 50 ppm, ** 10 ppm, *** 250 ppm). Type of data set: in vivo. The settings on record: Phakopsora pachyrhizi, 100 = 100% disease control, 0 = no control; for pest or weed control at 10 ppm: 10 ppm test suspension. The essentials: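 Preventive test: one day after spraying compound (acetone/water suspension, 250 ppm PEG400), seedlings received rust spore inoculum, 24 h in saturated air then 8 days in growth chamber, both at 22 °C. Disease control scored visually, 100 = complete, 0 = none, relative to untreated controls.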

Data set [2] has as its system Puccinia recondita f. sp. tritici (the causal agent of wheat leaf rust). The data set can be described thus: Test B: preventive spray on wheat seedlings, disease rating (100 = 100% control; * 50 ppm, ** 10 ppm, *** 250 ppm). The class given is in vivo. The settings on record: Puccinia recondita, 100 = 100% disease control; for pest or weed control at 10 ppm: 10 ppm test suspension; for pest or weed control at 50 ppm: 50 ppm test suspension. The essentials: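 Preventive test: Puccinia recondita f. sp. tritici spores were inoculated one day after run-off spraying of wheat seedlings with test suspension (acetone/water 50/50, 250 ppm PEG400). After 24 h in saturated air and 6 days in a growth chamber, both at 20° C, control was scored 0–100 versus untreated plants.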

In data set [3] the test system is Zymoseptoria tritici (the causal agent of wheat leaf blotch). The data set can be described thus: Test D: preventive spray on wheat seedlings, disease rating (100 = 100% control; * 50 ppm, ** 10 ppm, *** 250 ppm). The settings on record: Zymoseptoria tritici, 250 ppm test suspension, 100 = 100% disease control. The class given is in vivo. The essentials: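 Compounds first dissolved in acetone (3% of final volume), then suspended in 50/50 acetone/water with 250 ppm PEG400 and sprayed to run-off on wheat seedlings; Z. tritici spores inoculated next day. Incubated saturated at 24° C. 48 h, then 20° C. 17 days; disease control rated 0–100 versus controls.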

For data set [4], the system named is Phakopsora pachyrhizi (the causal agent of Asian soybean rust). The data set can be described thus: Test F: Compound 32 or 64 alone and in mixtures on soybean seedlings, observed (Obsd) and Colby expected (Exp) disease control. Type of data set: in vivo. The settings on record: for pest or weed control at 1.422 ppm: Compound 32 1.422 ppm alone; for pest or weed control at 2.276 ppm: Compound 32 2.276 ppm alone.

The test system of data set [5] is Uncinula necator (the causal agent of grape powdery mildew). Briefly: Test C: preventive spray on grape seedlings, disease rating (100 = 100% control; * 50 ppm, ** 10 ppm, *** 250 ppm). Type of data set: in vivo. The settings on record: Erysiphe necator, 100 = 100% disease control. The essentials: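 Grape seedlings sprayed to run-off with compound suspended in acetone/water (50/50) with 250 ppm PEG400, then inoculated next day with Uncinula necator spores. Kept at 20 °C for 12 days before disease rating, where 100 is full control and 0 none, relative to untreated controls.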

Data set [6] relates to Blumeria graminis f. sp. tritici (the causal agent of wheat powdery mildew). Briefly: Test E: preventive spray on wheat seedlings, visual disease rating (100 = 100% control; * 50 ppm, ** 10 ppm, *** 250 ppm). The class given is in vivo. The settings on record: Blumeria graminis, 250 ppm test suspension, 100 = 100% disease control. The essentials:
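Test suspension (3% acetone, acetone/water 50/50, 250 ppm PEG400) sprayed to run-off on wheat seedlings; inoculated next day with powdery mildew spore dust and kept 8 days at 20 °C. Visual rating, 100 = full and 0 = no control relative to untreated.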

Setting [7] is: Phakopsora pachyrhizi, Table B-1.
[8] abbreviates: Phakopsora pachyrhizi, Table C-1.
[9] abbreviates: Phakopsora pachyrhizi, Table D-1.
The mark [10] stands for this setting: Phakopsora pachyrhizi, Table F-1.
Setting [11] is: Phakopsora pachyrhizi, Table G-1.
Setting [12] is: Phakopsora pachyrhizi, Table H-1.
Setting [13] is: Phakopsora pachyrhizi, Table I-1.

Consider `OC(O)(COc1cccc(Cn2cc(Br)cn2)c1)C(F)(F)F` [compound 386], for which the melting point was 83.7 to 86.5 °C. In addition, the pest or weed control at 10 ppm in data set [1] was found to be 84%. In addition, in data set [2] (0 = no control), the pest or weed control at 10 ppm was determined as 19%.

For the molecule `O=C(NCC1CC1)c1csc(Cc2ccc(OCC3(C(F)(F)F)OCCO3)cc2)n1` [Compound 71, N-(cyclopropylmethyl)-2-[[4-[[2-(trifluoromethyl)-1,3-dioxolan-2-yl]methoxy]phenyl]-methyl]thiazole-4-carboxamide], the melting point is 88 to 92 °C. In addition, the pest or weed control at 10 ppm in data set [2] (wheat seedlings) turned out to be 96%.

Turning to `CCOC(=O)c1cnn(Cc2ccc(OCC3(C(F)(F)F)OCCO3)cc2)c1` [Compound 32, ethyl 1-[[4-[[2-(trifluoromethyl)-1,3-dioxolan-2-yl]methoxy]phenyl]methyl]-1H-pyrazole-4-carboxylate], the results for the pest or weed control at 250 ppm in data set [3] (wheat seedlings) and in data set [6] (wheat seedlings) were 89% and 97%, respectively. Further, in data set [2] (wheat seedlings), the pest or weed control at 50 ppm came to 68%. The pest or weed control at 1.422 ppm in data set [4] (Table E-1) amounted to 78%; in data set [4] (setting [7]) it was 55%; in data set [4] (setting [8]), 39%; in data set [4] (setting [9]) it was 52%; in data set [4] (setting [10]), 75%; in data set [4] (setting [11]), 39%. In addition, the pest or weed control at 1.422 ppm in data set [4] (setting [12]) worked out at 69%; in data set [4] (setting [13]), 63%. The pest or weed control at 2.276 ppm was determined as 80% in data set [4] (Table E-1); 64% in data set [4] (setting [7]); 44% in data set [4] (setting [8]); 60% in data set [4] (setting [9]); 77% in data set [4] (setting [10]); 61% in data set [4] (setting [11]). In addition, the pest or weed control at 2.276 ppm in data set [4] (setting [12]) turned out to be 63%; in data set [4] (setting [13]), 71%. The same molecule displayed a pest or weed control at 10 ppm in data set [5] (10 ppm test suspension (**), grape seedlings) of 100%.

For the molecule `CCO/C(=C\Oc1ccc(Cn2cc(C(=O)OCc3ccccc3)cn2)cc1)C(F)(F)F` [Compound 186, phenylmethyl 1-[[4-[[(1Z)-2-ethoxy-3,3,3-trifluoro-1-propen-1-yl]oxy]phenyl]methyl]-1H-pyrazole-4-carboxylate], the melting point was in the range of 63 to 67 °C. For the same molecule, in data set [3] (wheat seedlings), the pest or weed control at 250 ppm is 9%. For the same molecule, the pest or weed control at 10 ppm in data set [2] (wheat seedlings) came to 0%. The molecule also returned a pest or weed control at 250 ppm in data set [6] (wheat seedlings) of 84%.

For `CCOC(=O)c1cnn(Cc2cnn(CC(O)(O)C(F)(F)F)c2)c1` [compound 368], the melting point lay in the range of 81 to 84 °C. In addition, the pest or weed control at 250 ppm in data set [3] (0 = no control) was 0%. The pest or weed control at 50 ppm in data set [1] (50 ppm test suspension) is 0%. Besides, in data set [2] (0 = no control), the pest or weed control at 50 ppm was 0%. This molecule also showed a pest or weed control at 250 ppm in data set [5] (250 ppm test suspension, 0 = no control) of 33%. Moreover, the pest or weed control at 250 ppm in data set [6] (0 = no control) was found to be 0%.

In turn, `CCOC(=O)c1cnn(Cc2c(F)c(F)c(OCC3(C(F)(F)F)OCCO3)c(F)c2F)c1` [compound 392] displayed a melting point of 59 to 62 °C. The same molecule showed a pest or weed control at 10 ppm in data set [1] of 97%. In addition, in data set [2] (0 = no control), the pest or weed control at 10 ppm was 19%.
